Data as given in patent EP1229027A1 (priority 1996, dated 1998).

Experiments:
Pythium ultimum = test: Fungitoxicity against Pythium ultimum (mycelial dry weight growth in liquid asparagine-sucrose broth); format: cell-based; settings: Globisporangium ultimum; 100 ppm of the compound; 48 hours at 25 °C; increase in mycelial dry weight compared to controls
Procedure: Compounds were tested for fungitoxicity against Pythium ultimum according to the procedures set forth below.
Test compounds were dissolved in dimethylsulfoxide at 20 mg/ml and 0.1 ml was added to 19.9 ml of a liquid asparagine-sucrose broth, prepared according to the method described in Erwin, D.C., and Katznelson, K., Canadian Journal of Microbiology 7, 15 (1971), in 9 cm petri dishes to give a concentration of 100 ppm of the compound. Each plate was inoculated with a mycelial plug, 7 mm in diameter, taken from the growing edge of a culture of Pythium ultimum grown on potato dextrose agar. Two replicate plates were used for each treatment. After growth for 48 hours at 25 °C with shaking on a gyrotary shaker at 60 rpm, the increase in mycelial dry weight was determined. Fungitoxicity was recorded as percent inhibition of growth as compared to controls lacking the test compounds. 2.

Phytophthora infestans = format: in vivo; settings: Rate 300 ppm; tomato seedlings; evaluated 6 days after inoculation
Plasmopara viticola = settings: in vivo

CCC(C)(NC(=O)c1ccc2nc(C)oc2c1)C(=O)CCl (stereo not shown) [Compound 2, N-(3-chloro-1-ethyl-1-methyl-2-oxopropyl)-2-methylbenzoxazole-6-carboxamide]
inhibition at 100 ppm (Pythium ultimum): 92.2%
TLB (percent disease control) (Phytophthora infestans): 90%
GDM (percent disease control) (Plasmopara viticola): 100%

CCC(C)(NC(=O)c1ccc2c(c1)NC(=O)CO2)C(=O)CCl (stereo not shown) [Compound 11, N-(3-chloro-1-ethyl-1-methyl-2-oxopropyl)-1,4-benzoxazine-3-one-6-carboxamide]
inhibition at 100 ppm (Pythium ultimum): 34.3%
TLB (percent disease control) (Phytophthora infestans): 95%
GDM (percent disease control) (Plasmopara viticola): 0%

CCC(C)(NC(=O)c1ccc2c(c1)NC(=O)CO2)C(=O)C(Cl)Cl (stereo not shown) [Compound 13, N-(3,3-dichloro-1-ethyl-1-methyl-2-oxopropyl)-1,4-benzoxazine-3-one-6-carboxamide]
inhibition at 100 ppm (Pythium ultimum): 60.8%
